Test results as given in patent US11524962B2, “Substituted pyrrolo[2,3-d]pyrimidines as inhibitors of protein arginine methyl transferase 5 (PRMT5)” (PRELUDE THERAPEUTICS, INCORPORATED, priority 2017, dated 2022).

Tests used:
[1] = system: Granta-519 mouse xenograft; test: Tumor growth inhibition in Granta-519 mouse xenograft model; format: in vivo
Experimental: Granta-519 cells was maintained in DMEM medium supplemented with 10% fetal bovine serum and 2 mM L-Glutamine at 37° C. in an atmosphere of 5% CO2 in air. Cells in exponential growth phase were harvested and 1×10^7 cells in 0.1 mL of PBS with Matrigel (1:1) were injected subcutaneously at the right lower flank region of each mouse for tumor development. The treatments were started when the mean tumor size reaches approximately 300-400 mm^3. […] Example 1 or vehicle (0.5% Na CMC+0.5% Tween80, suspension) were administered orally (BID or QD for Example 1, QD for vehicle) at a dose of 25 mg/kg BID and 50 mg/kg QD for 16 and 20 days, respectively. Body weights and tumor size were measured every 3 to 4 days after randomization. Animals were euthanized 12 hours after last dosing, and blood and tumor samples were collected for analysis.

[2] = system: U87MG-luc3 human glioblastoma cells; test: Tumor growth inhibition in U87 MG mouse orthotopic model; format: in vivo; details: for tumor growth inhibition: day 29
Experimental: U87MG-luc3 human glioblastoma cells were grown to mid-log phase in Eagle's Minimum Essential Medium containing 10% fetal bovine serum, 2 mM glutamine, 1× non-essential amino acids, 0.075% sodium bicarbonate, 1 mM sodium pyruvate, 100 units/mL sodium penicillin G, g/mL gentamicin, and 100 μg/mL streptomycin sulfate. The tumor cells were cultured in tissue culture flasks in a humidified incubator at 37° C., in an atmosphere of 5% CO2 and 95% air. Cells were cultured in 2 μg/mL puromycin until the second to last passage before implant, grown to mid-log phase and harvested. Post-implant verification of luciferase-expressing cells was performed by maintaining cells in culture for three passages after implant to ensure stable doubling time. Limiting dilution was used to verify and quantitate light production in the presence of luciferin. Cells were harvested at mid-log phase and resuspended at a concentration of 1×10^8 cells/mL in PBS. Each mouse (Female athymic nude mice (Crl:NU(NCr)-Foxn1nu, Charles River)) received an intracranial injection of 1×10^6 U87MG-luc3 cells (0.01 mL cell suspension) and tumor growth was monitored through whole body bioluminescent imaging. Four days post cell implant, designated as Day 1 of the study, the animals were sorted into five groups based on flux values before treatment starts. Ex. 11 or vehicle (0.5% Na CMC+0.5% Tween80) was administered orally BID. Ex. 11 was dosed at 10, 20 mg/kg BID and 50 mg/kg BID, 7-day on/7-day off for 22 days. Animals were continued to be observed to obtain overall survival data.
In Vivo bioluminescence images (dorsal) were captured to monitor tumor progression. Luciferase activity was measured in live animals using IVIS SpectrumCT (Perkin Elmer, Mass.) equipped with a CCD camera (cooled at −90° C.), mounted on a light-tight specimen chamber. Regions of interest were drawn around each mouse image, and flux was quantified and reported as 10^6 photons per second (p/s). For overall survival, animals were monitored individually to an endpoint of moribundity due to progression of systemic lymphoma. Full hind limb paralysis, severe ocular proptosis or moribundity all called for euthanasia.

[3] = 50 mg/kg BID oral, 7-day on/7-day off

Row | SMILES | body weight loss ([1]; 25 mg/kg BID oral, 16 days) [%] | tumor growth inhibition ([1]; 25 mg/kg BID oral, 16 days) [%] | body weight gain ([1]; 50 mg/kg QD oral, 20 days) [%] | tumor growth inhibition ([1]; 50 mg/kg QD oral, 20 days) [%] | median survival ([2]; 10 mg/kg BID oral) [days] | tumor growth inhibition ([2]; 10 mg/kg BID oral) [%] | median survival ([2]; 20 mg/kg BID oral) [days] | tumor growth inhibition ([2]; 20 mg/kg BID oral) [%] | median survival [2, 3] [days] | tumor growth inhibition [2, 3] [%]
1 | C[C@@](O)(c1ccc2c(c1)CC2)[C@H]1O[C@@H](n2ccc3c(N)ncnc32)[C@H](O)[C@@H]1O [Example 1, (2R,3R,4S,5S)-2-(4-amino-7H-pyrrolo[2,3-d]pyrimidin-7-yl)-5-((R)-1-(bicyclo[4.2.0]octa-1(6),2,4-trien-3-yl)-1-hydroxyethyl)tetrahydrofuran-3,4-diol] | 6.75 | 76.7 | 10.1 | 5.8 | – | – | – | – | – | –
2 | Cc1ncnc2c1ccn2[C@@H]1O[C@H]([C@H](O)c2ccc3c(c2)CC3)[C@@H](O)[C@H]1O [Example 11, (2R,3S,4R,5R)-2-((R)-bicyclo[4.2.0]octa-1(6),2,4-trien-3-yl(hydroxy)methyl)-5-(4-methyl-7H-pyrrolo[2,3-d]pyrimidin-7-yl)tetrahydrofuran-3,4-diol] | – | – | – | – | 41 | 10 | 37.5 | 61 | 39 | 85
